Paper PMC10590756, “Glutarate regulates T cell metabolism and anti-tumour immunity” (Nature Metabolism, 2023)

Tests used:
CD19^+ Raji cells = experiment: In vitro cytotoxicity and IFNγ secretion of CD19 CAR T cells; assay type: cell-based, human; settings: T cells cultured 7 days with 500 µM DEG
Method: Secreted IFNγ levels of cultured cells were determined using an ELISA. Assays were performed with uncoated ELISA kits (catalogue no. 88-7316, Thermo Fisher Scientific), according to the manufacturer’s instructions. Absorbance was determined using a microplate reader (Sunrise, Tecan) at a wavelength of 450 nm.
Ten thousand B16F10-OVA or SKOV3 cells were seeded per well in 96-well plates and cocultured for a minimum of 14 h with varying ratios of mouse CD8^+ OT1 or human CD8^+RQR8^+ HER2 CAR T cells, respectively. T cells had been treated with or without DEG 7 days before the assay. Wells were washed twice with PBS to remove T cells and the number of remaining target cells was determined by culturing with 10 µg ml^−1 resazurin (catalogue no. R7017, Sigma-Aldrich) and measuring the fluorescence signal in a plate reader. Cytotoxicity was calculated relative to wells with no T cells added. Ten thousand Raji cells were cocultured for a minimum of 14 h with CD19 CAR T cells previously activated for 7 days and cultured with or without DEG. Cytotoxicity was assessed by flow cytometry using the ratio of live Raji cells to CountBright Absolute Counting Beads (catalogue no. C36950, Thermo Fisher Scientific). To determine specific cytotoxicity, data were normalized to the cytotoxicity of the vector-controlled transduced CD8 T cells of the respective donor.

human CD8^+ T cells = experiment: qPCR gene expression in CD8^+ T cells; assay type: cell-based; settings: 500 µM DEG, 7 days
Method: Total RNA was extracted from isolated CD8^+ T cells (RNeasy Kit, QIAGEN); 300 ng of RNA were used for complementary DNA synthesis (First-Strand cDNA Synthesis Kit, Invitrogen). Quantitative PCR with reverse transcription (RT–qPCR) was performed with SYBR green (Roche) in a StepOnePlus system (Applied Biosystems). All kits were used according to the manufacturer’s instructions. Samples were run in technical duplicates. Primers were designed with NCBI primer blast and are listed in Supplementary Table 5.

CD8^+ T cells [1] = experiment: Western blot of PDHK1, phosphorylated PDHc and PDHc; assay type: cell-based, human; settings: 500 µM DEG
Method: Cell pellets were lysed by either urea-Tris buffer (8 M urea, 50 mM Tris-HCl (pH 7.5), 150 mM β-mercaptoethanol), sonicated twice for 45 s intercalated with 1 min incubation on ice and centrifuged at 14,000g, 4 °C for 15 min or by RIPA Lysis and Extraction Buffer (catalogue no. 89900, Thermo Fisher Scientific), according to the manufacturer’s instructions. Nuclear and cytosolic fractions were prepared from cells using the NE-PER kit (catalogue no. 78833, Thermo Fisher Scientific). Histones were extracted with the Histone Extraction Kit (catalogue no. ab113476, Abcam). Proteins were separated by SDS–PAGE and transferred to polyvinylidene fluoride (PVDF) membranes. Total protein stain was obtained using non-stain protein labelling reagent (catalogue no. A44448, Thermo Fisher Scientific). Membranes were then blocked in 5% milk prepared in PBS plus 0.05% Tween-20, incubated with primary antibodies overnight at 4 °C and horseradish peroxidase (HRP)-conjugated secondary antibodies (catalogue nos. HAF008 and HAF007, R&D Systems) for 1 h the next day. After enhanced chemiluminescence (ECL) exposure (catalogue no. GERPN2106, Sigma-Aldrich), membranes were imaged using an iBrightCL1000 (Thermo Fisher Scientific). The following primary antibodies from Cell Signaling Technology were used at a concentration of 1:1,000: anti-PDHK1 (catalogue no. 3820); anti-β-actin (catalogue no. 12262S); anti-PPIB (catalogue no. 43603); anti-OGDH (catalogue no. 26865S); anti-phospho-PDH α1 (catalogue no. 37115); anti-SIRT5 (catalogue no. 8779S); anti-H3 (catalogue no. 4499); anti-H3K4me2 (catalogue no. 9725); anti-H3K4me3 (catalogue no. 9751); anti-H3K9me2 (catalogue no. 4658); anti-H3K9me3 (catalogue no. 13969); anti-H3K27me2 (catalogue no. 9728); anti-H3K27me3 (catalogue no. 9733); anti-H3K36me2 (catalogue no. 2901); anti-H3K36me3 (catalogue no. 4909); anti-H3K79me2 (catalogue no. 5427); anti-H3K79me3 (catalogue no. 4360); anti-H3k9ac (catalogue no. 9649); anti-H3K18ac (catalogue no. 13998); and anti-H3k27ac (catalogue no. 8173). […]

CD8^+ T cells [2] = experiment: Acetyl-CoA measurement; assay type: cell-based, human; settings: 500 µM DEG, 30 min or 7 days
Method: Acetyl-CoA levels were determined using an acetyl-CoA assay kit (catalogue no. MAK039, Sigma-Aldrich). After culture, 2 × 10^6 cells per condition were collected, washed twice with ice-cold PBS and resuspended in 500 µl of the assay buffer. Following deproteinization by adding 2 µl 1M perchloric acid, samples were sonicated and the assay was performed according to the manufacturer’s instructions. Data were acquired on the FLUOstar Omega.

CCOC(=O)CCCC(=O)OCC [DEG, Diethyl glutarate]
cytotoxicity of CD19^+ CAR T cells against CD19^+ Raji cells (CD19^+ Raji cells): increased cytotoxicity | interferon-γ (IFNγ) secretion of CD19^+ CAR T cells (CD19^+ Raji cells; coculture with Raji cells): secreted more | carnitine palmitoyltransferase 1A (CPT1A) gene expression (human CD8^+ T cells): increased levels | expression of HIF target genes (human CD8^+ T cells): increased expression | fatty acid binding protein (FABP) gene expression (human CD8^+ T cells): increased levels | fatty acid synthase (FASN) gene expression (human CD8^+ T cells): increased levels | mRNA levels of PDHK1 (human CD8^+ T cells): increased | PDHK1 protein levels (CD8^+ T cells [1]): not significantly altered | PDHc phosphorylation levels (CD8^+ T cells [1]): did not observe any changes | protein expression of the PDHc (CD8^+ T cells [1]): did not alter | acetyl-CoA levels (CD8^+ T cells [2]): not lower
